Reference: ChEMBL document CHEMBL1141048, “5-Substituted 4-anilinoquinazolines as potent, selective and orally active inhibitors of erbB2 receptor tyrosine kinase” (Bioorg Med Chem Lett, 2005)
Each block holds one compound with its values, some of them ahead of it.

Columns and labels:
[1] = target: Epidermal growth factor receptor (Homo sapiens, UniProt P00533); test: Inhibitory concentration against EGFR kinase phosphorylation using synthetic peptide as a substrate
[2] = target: T1, Receptor tyrosine-protein kinase erbB-2 (Homo sapiens, UniProt P04626); test: Inhibitory concentration against erbB2 kinase phosphorylation using synthetic peptide as a substrate
T1 sequence (P04626 whole entry): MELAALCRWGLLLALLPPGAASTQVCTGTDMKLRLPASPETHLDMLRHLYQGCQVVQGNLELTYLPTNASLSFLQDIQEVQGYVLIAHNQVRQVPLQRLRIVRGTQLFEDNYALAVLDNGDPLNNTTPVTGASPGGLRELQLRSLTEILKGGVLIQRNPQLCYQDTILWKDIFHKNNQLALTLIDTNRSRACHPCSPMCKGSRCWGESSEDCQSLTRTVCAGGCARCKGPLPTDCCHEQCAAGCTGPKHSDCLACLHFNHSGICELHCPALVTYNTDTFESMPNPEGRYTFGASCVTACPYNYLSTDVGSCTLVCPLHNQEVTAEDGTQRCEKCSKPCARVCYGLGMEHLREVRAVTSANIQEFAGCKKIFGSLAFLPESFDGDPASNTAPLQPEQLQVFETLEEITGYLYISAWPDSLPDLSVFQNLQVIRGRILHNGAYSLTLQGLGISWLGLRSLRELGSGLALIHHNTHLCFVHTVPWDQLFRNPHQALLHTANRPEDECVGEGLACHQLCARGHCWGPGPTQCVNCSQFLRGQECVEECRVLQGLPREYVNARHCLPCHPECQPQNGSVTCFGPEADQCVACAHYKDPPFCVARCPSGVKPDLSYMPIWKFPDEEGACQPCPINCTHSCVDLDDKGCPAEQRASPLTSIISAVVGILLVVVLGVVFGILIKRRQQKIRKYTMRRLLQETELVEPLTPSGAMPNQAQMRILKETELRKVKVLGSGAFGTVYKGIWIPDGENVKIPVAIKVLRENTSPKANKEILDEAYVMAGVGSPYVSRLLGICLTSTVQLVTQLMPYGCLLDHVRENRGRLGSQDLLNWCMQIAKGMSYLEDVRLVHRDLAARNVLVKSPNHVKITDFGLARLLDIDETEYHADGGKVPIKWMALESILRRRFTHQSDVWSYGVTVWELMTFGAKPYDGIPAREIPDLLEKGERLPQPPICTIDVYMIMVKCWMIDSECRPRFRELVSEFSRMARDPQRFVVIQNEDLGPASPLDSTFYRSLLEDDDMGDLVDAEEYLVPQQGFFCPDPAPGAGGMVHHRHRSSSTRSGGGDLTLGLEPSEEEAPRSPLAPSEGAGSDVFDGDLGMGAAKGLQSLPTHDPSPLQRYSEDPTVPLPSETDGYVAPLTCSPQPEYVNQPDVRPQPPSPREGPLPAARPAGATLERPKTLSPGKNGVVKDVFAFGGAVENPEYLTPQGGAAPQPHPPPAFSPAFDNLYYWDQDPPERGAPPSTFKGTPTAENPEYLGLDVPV

BT-474 = test: Inhibitory concentration of compound against BT474C using standard MTT colorimetric endpoint; settings: Homo sapiens
KB [3] = test: Inhibitory concentration of compound against KB Basal; settings: Homo sapiens
KB [4] = test: Inhibitory concentration of compound against KB using a sandwich ELISA; settings: Homo sapiens
[5] = target: T1, Receptor tyrosine-protein kinase erbB-2; test: Inhibitory concentration against erbB2 autophosphorylation in MCF-7 breast carcinoma cell line; type: functional, cell-based, MCF7
[6] = Plasma concentration of compound after 2 hours of administration of 100 mg/kg through peroral route; settings: mouse, po
[7] = Plasma concentration of compound after 4 hours of administration of 100 mg/kg through peroral route; settings: mouse, po
[8] = Plasma concentration of compound after 6 hours of administration of 100 mg/kg through peroral route; settings: mouse, po
[9] = Plasma concentration of compound after 16 hours of administration of 100 mg/kg through peroral route; settings: mouse, po
[10] = Plasma concentration of compound after 24 hours of administration of 100 mg/kg through peroral route; settings: mouse, po
[11] = Clearance of compound in Mice after administration of 5 mg/kg through peroral route; type: ADME, organism-based; design: dose 5 mg/kg, route oral; settings: mouse, in vivo, po
[12] = Clearance of compound in Mice after administration of 2 mg/kg through intra venous route; type: ADME, organism-based; design: dose 2 mg/kg; settings: mouse, in vivo, iv
[13] = Steady state volume of Distribution of compound in Mice after administration of 5 mg/kg through peroral route; type: ADME, organism-based; design: dose 5 mg/kg, route oral; settings: mouse, in vivo, po
[14] = Steady state volume of Distribution of compound in Mice after administration of 2 mg/kg through intra venous route; type: ADME, organism-based; design: dose 2 mg/kg; settings: mouse, in vivo, iv, read-out: Vdss
[15] = Bioavailability of compound in Mice after administration of 5 mg/kg through peroral route; type: ADME, organism-based; settings: mouse, in vivo, po, read-out: Bioavailabiility
[16] = Bioavailability of compound in Mice after administration of 2 mg/kg through intra venous route; type: ADME, organism-based; settings: mouse, in vivo, intravenous, read-out: Bioavailabiility
[17] = AUC in Mice after administration of 5 mg/kg through peroral route; type: ADME, organism-based; design: dose 5 mg/kg, route oral; settings: mouse, plasma, po
[18] = AUC in Mice after administration of 5 mg/kg through oral route; settings: mouse, plasma

Epidermal growth factor receptor, sequence (P00533 whole entry): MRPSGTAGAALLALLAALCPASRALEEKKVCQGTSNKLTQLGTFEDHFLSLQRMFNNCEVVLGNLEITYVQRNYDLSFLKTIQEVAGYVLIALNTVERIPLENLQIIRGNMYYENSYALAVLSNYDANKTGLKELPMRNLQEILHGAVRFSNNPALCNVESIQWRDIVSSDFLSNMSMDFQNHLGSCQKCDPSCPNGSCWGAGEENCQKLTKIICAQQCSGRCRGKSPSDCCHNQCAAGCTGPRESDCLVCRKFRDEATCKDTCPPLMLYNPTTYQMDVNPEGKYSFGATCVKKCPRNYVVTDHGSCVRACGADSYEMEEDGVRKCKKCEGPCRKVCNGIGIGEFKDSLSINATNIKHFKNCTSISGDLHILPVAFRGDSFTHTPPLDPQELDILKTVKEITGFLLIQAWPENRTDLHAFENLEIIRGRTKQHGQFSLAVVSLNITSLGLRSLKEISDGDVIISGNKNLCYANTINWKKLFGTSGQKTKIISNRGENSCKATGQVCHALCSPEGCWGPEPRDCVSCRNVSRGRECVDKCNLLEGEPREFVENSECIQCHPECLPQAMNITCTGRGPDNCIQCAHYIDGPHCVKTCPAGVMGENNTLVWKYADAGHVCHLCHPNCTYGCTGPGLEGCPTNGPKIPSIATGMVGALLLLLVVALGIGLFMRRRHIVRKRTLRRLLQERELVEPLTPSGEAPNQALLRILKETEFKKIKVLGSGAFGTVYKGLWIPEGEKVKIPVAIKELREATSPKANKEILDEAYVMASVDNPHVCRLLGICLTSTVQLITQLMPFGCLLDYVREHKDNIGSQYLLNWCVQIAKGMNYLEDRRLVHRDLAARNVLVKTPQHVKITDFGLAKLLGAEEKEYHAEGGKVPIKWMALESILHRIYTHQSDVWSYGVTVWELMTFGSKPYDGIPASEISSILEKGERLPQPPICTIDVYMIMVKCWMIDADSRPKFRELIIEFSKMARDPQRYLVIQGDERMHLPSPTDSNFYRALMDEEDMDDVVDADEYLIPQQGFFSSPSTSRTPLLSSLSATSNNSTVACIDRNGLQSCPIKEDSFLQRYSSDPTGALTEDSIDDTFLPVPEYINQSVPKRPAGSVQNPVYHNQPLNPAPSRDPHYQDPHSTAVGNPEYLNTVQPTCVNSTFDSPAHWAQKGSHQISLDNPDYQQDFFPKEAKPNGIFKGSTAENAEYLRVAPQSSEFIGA

Compound: CN1CCC(Oc2cccc3ncnc(Nc4ccc(OCc5cnccn5)c(Cl)c4)c23)CC1
IC50 [1]: 690 nM | IC50 [2]: < 2 nM

Compound: Clc1cc(Nc2ncnc3cccc(OC4CCOCC4)c23)ccc1OCc1ccccn1
IC50 [1]: 2400 nM | IC50 [2]: 24 nM

Compound: CN1CCC(Oc2cccc3ncnc(Nc4ccc(OCc5cscn5)c(Cl)c4)c23)CC1
IC50 [1]: 698 nM | IC50 [2]: < 2 nM

Compound: COc1ccc(Nc2ncnc3cccc(OC4CCN(C)CC4)c23)cc1Cl
IC50 [1]: 1800 nM | IC50 [2]: 1100 nM

Compound: CN1CCC(Oc2cccc3ncnc(Nc4ccc(OCc5ccccn5)cc4)c23)CC1
IC50 [1]: 2100 nM | IC50 [2]: 70 nM

The next compounds have a lower IC50 [1] than those just listed; values first:

IC50 (BT-474): 2.7 nM | IC50 [1]: 5 nM | IC50 [2]: < 2 nM | IC50 (KB [3]): 1700 nM | IC50 (KB [4]): 460 nM | IC50 [5]: 56 nM
Compound: CN1CCC(Oc2cccc3ncnc(Nc4ccc(OCc5cccc(F)c5)c(Cl)c4)c23)CC1

IC50 [1]: 440 nM | IC50 [2]: 24 nM
Compound: COc1cccc2ncnc(Nc3ccc(OCc4ccccn4)c(Cl)c3)c12

IC50 [1]: 59 nM | IC50 [2]: 56 nM
Compound: COc1cc2ncnc(Nc3ccc(OCc4ccccn4)c(C)c3)c2cc1OC

IC50 (BT-474): 41 nM | concentration at 2 h [6]: 9.2 µM | concentration at 4 h [7]: 7.2 µM | concentration at 6 h [8]: 6.9 µM | concentration at 16 h [9]: 2.2 µM | concentration at 24 h [10]: 1.1 µM | CL/F [11]: 15 mL/min/kg | clearance [12]: 15 mL/min/kg | Vdss [13]: 2.6 L/kg | Vd [14]: 2.6 L/kg | bioavailability [15]: 50% | bioavailability [16]: 50% | AUC [17]: 5.5 µM·h | IC50 [1]: 140 nM | IC50 [2]: < 2 nM | IC50 (KB [3]): 11900 nM | IC50 (KB [4]): 2600 nM | IC50 [5]: 61 nM | AUC [18]: 5.5 µM·h
Compound: CN1CCC(Oc2cccc3ncnc(Nc4ccc(OCc5ccccn5)c(Cl)c4)c23)CC1
